Results published in PubChem BioAssay (NCI).
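The concentration for 50% growth inhibition is given as GI50. TGI is the concentration that stops growth completely.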

Key:
Test in all cases: growth of human tumour cells (NCI), 384-well format; in the data active = GI50 below about 0.43 µM; inactive = the rest
[1] = system: NCI-H226 lung
[2] = system: NCI-H23 lung
[3] = system: NCI-H322M lung
[4] = system: NCI-H460 NSCLC
[5] = system: NCI-H522 lung
[6] = system: NCI/ADR-RES ovarian
[7] = system: OVCAR-3 ovarian
[8] = system: OVCAR-4 ovarian
[9] = system: OVCAR-5 ovarian
[10] = system: OVCAR-8 ovarian
[11] = system: PC-3 prostate
[12] = system: RPMI-8226 leukemia
[13] = system: RXF 393 renal
[14] = system: SF-268 CNS
[15] = system: SF-295 CNS
[16] = system: SF-539 CNS
[17] = system: SK-MEL-28 melanoma
[18] = system: SK-MEL-5 melanoma
[19] = system: SK-OV-3 ovarian
[20] = system: SN12C renal
[21] = system: SNB-19 CNS
[22] = system: SNB-75 CNS
[23] = system: SW-620 colon
[24] = system: T-47D breast
[25] = system: TK-10 renal
[26] = system: U251 glioblastoma
[27] = system: UACC-257 melanoma
[28] = system: UACC-62 melanoma
[29] = system: UO-31 renal

O=C(Oc1ccc([N+](=O)[O-])cc1)N1CCC(C(O)(c2ccc3c(c2)OCO3)c2ccc3c(c2)OCO3)CC1
> 100 µM: TGI [1] | TGI [2] | TGI [3] | TGI [4] | TGI [5] | TGI [6] | TGI [7] | TGI [8] | TGI [9] | TGI [10] | TGI [11] | TGI [12] | TGI [13] | TGI [14] | TGI [15] | TGI [16] | TGI [17] | TGI [18] | TGI [19] | TGI [20] | TGI [21] | TGI [22] | TGI [23] | TGI [24] | TGI [25] | TGI [26] | TGI [27] | TGI [28] | TGI [29]
inactive: GI50 [1] > 100 µM | GI50 [2] > 100 µM | GI50 [3] > 100 µM | GI50 [4] > 100 µM | GI50 [5] > 100 µM | GI50 [6] > 100 µM | GI50 [7] > 100 µM | GI50 [8] > 100 µM | GI50 [9] > 100 µM | GI50 [10] > 100 µM | GI50 [11] > 100 µM | GI50 [12] > 100 µM | GI50 [13] 98.7 µM | GI50 [14] 11.1 µM | GI50 [15] > 100 µM | GI50 [16] > 100 µM | GI50 [17] > 100 µM | GI50 [18] > 100 µM | GI50 [19] > 100 µM | GI50 [20] > 100 µM | GI50 [21] > 100 µM | GI50 [22] 24.6 µM | GI50 [23] > 100 µM | GI50 [24] 2.93 µM | GI50 [25] > 100 µM | GI50 [26] > 100 µM | GI50 [27] > 100 µM | GI50 [28] > 100 µM | GI50 [29] > 100 µM
